{
  "source": "patent US7115651B2",
  "about": "“Macrocycles and uses thereof” (Sloan-Kettering Institute for Cancer Research, priority 2000, dated 2006)",
  "key": {"[1]": {"system": "small cell lung cancer cell line with defective Rb function", "assay": "inhibition of small cell lung cancer cells with defective Rb function", "assay_type": "cell-based, human", "details": "for inhibition of small cell lung cancer cell line with defective Rb function / potency compared with 17-AGG in small cell lung cancer cell line with defective Rb function: FIG. 20", "procedure": "(§1) The human cancer cell lines MCF7, BT474 and N417 were obtained from the American Type Culture Collection (Manassas, Va., USA) and maintained in a 1:1 mixture of DME:F12 supplemented with 2 mM glutamine, 50 U/mL penicillin, 50 U/mL streptomycin and 5% heat inactivated fetal bovie serum (Gemini Bioproducts) and incubated at 37° C. in 5% CO2.\n(§2) Growth assays were performed by seeding 10000 cells (MCF7, BT474 or N417) per well in 6-well dishes and incubating for 24 h before drug treatment. Drugs or vehicle were administered as outlined for each experiment, and cells were incubated for the time periods depcited and then the number quantified by a Coulter counter."}, "[2]": {"system": "HSP90", "assay": "binding of aigialomycin D to HSP90", "details": "compared with radicicol"}, "[3]": {"system": "P. falciparum", "details": "against P. falciparum; Isaka et al. 2002; cited from earlier work"}, "[4]": {"system": "KB cells", "details": "against KB cells; Isaka et al. 2002; cited from earlier work"}, "[5]": {"system": "MCF7 cells (HER2 overexpressed, Rb positive)", "assay": "growth of MCF7 cells treated with radicicol and analogues", "assay_type": "cell-based, human", "procedure": "as §1, §2"}, "[6]": {"system": "Rb (retinoblastoma) positive cells", "assay": "cell cycle effect in Rb positive cells", "assay_type": "cell-based", "procedure": "(§3) Cell cycle distribution was assayed according to Nusse et al. with a Becton Dickinson fluorescence-activated cell sorter and analyzed by a Cell Cycle Multi-cycle system (Phoenix Flow System, San Diego, Calif., USA)."}, "[7]": {"system": "Rb negative cells", "assay": "cell cycle effect in Rb negative cells", "assay_type": "cell-based", "procedure": "as §3"}, "[8]": {"system": "breast cancer cell with wild type Rb", "assay": "inhibition of breast cancer cells with wild type Rb", "assay_type": "cell-based, human", "details": "FIG. 20", "procedure": "as §1, §2"}, "[9]": {"system": "HER2", "assay": "reduction of HER2 in MCF7 and BT474 cells (protein assay, anti-Her2 blot)", "assay_type": "cell-based, human", "details": "0.5 μM through 5 μM", "procedure": "The human cancer cell lines MCF7, BT474 and […] were obtained from the American Type Culture Collection (Manassas, Va., USA) and maintained in a 1:1 mixture of DME:F12 supplemented with 2 mM glutamine, 50 U/mL penicillin, 50 […] and 5% heat inactivated fetal bovie serum (Gemini Bioproducts) and incubated at 37° C. in 5% CO2. Cells were grown to 60-70% confluence and exposed to drugs or DMSO vehicle for the indicated time periods. Lysates were prepared using 5 mM Tris pH 7.4, 2% SDS and 10% glycerol lysis buffer. Protein concentration was determined using the BCA kit (Pierce Chemical Co.) according to the manufacturer's instructions. Clarified protein lysates (20-50 μg) were electrophoretically resolved on denaturing SDS-PAGE, transferred to ntirocellulose and probed with the following primary antibodies: anti-Her2 (C-18)."}},
  "data": [
    {"compound": "C=CCNC1=C2C[C@@H](C)C[C@H](OC)[C@H](O)[C@@H](C)/C=C(\\C)[C@H](OC(N)=O)[C@@H](OC)/C=C\\C=C(/C)C(=O)NC(=CC1=O)C2=O", "note": "[17-AGG, 17-allylaminogeldanamycin]", "values": [
      {"measurement": "potency in cells with wild type Rb versus cells with defective Rb function", "setting": "[1]; wild type Rb vs defective Rb", "result": "much more potent against cells with wild type Rb than in cells with defective Rb function"}
    ]},
    {"compound": "C[C@H]1C/C=C/[C@@H](O)[C@@H](O)CC/C=C/c2cc(O)cc(O)c2C(=O)O1", "note": "[Aigialomycin D]", "values": [
      {"measurement": "binding to HSP90", "setting": "[2]", "result": "does bind to HSP90 (though significantly less so than radicicol (2))"},
      {"measurement": "antimalarial activity IC50", "setting": "[3]", "result": 6.6, "unit": "µg/mL"},
      {"measurement": "antitumor activity IC50", "setting": "[4]", "result": 3.0, "unit": "µg/mL"}
    ]},
    {"compound": "C[C@@H]1C[C@H]2O[C@@H]2/C=C\\C=C\\C(=O)Cc2c(Cl)c(O)cc(O)c2C(=O)O1", "note": "[Radicicol]", "values": [
      {"measurement": "efficacy in side by side experiment with radicicol (growth of MCF7 cells, FIG. 19)", "setting": "[5]", "result": "demonstrated efficacy"},
      {"measurement": "inhibition of small cell lung cancer cell line with defective Rb function", "setting": "[1]", "result": "potent inhibitors"},
      {"measurement": "potency compared with 17-AGG in small cell lung cancer cell line with defective Rb function", "setting": "[1]", "result": "much more potent than 17-AGG"},
      {"measurement": "cell cycle block in Rb positive cells", "setting": "[6]", "result": "clear G1 (growth) phase block"},
      {"measurement": "cell cycle block in Rb negative cells", "setting": "[7]", "result": "blocked in the M (mitosis) phase"},
      {"measurement": "inhibition of breast cancer cell with wild type Rb", "setting": "[8]", "result": "potent inhibitors"}
    ]},
    {"compound": "C[C@@H]1C[C@H]2C[C@@H]2/C=C\\C=C\\C(=O)Cc2c(Cl)c(O)cc(O)c2C(=O)O1", "note": "[cyclopropyl radicicol, Cycloproparadicicol]", "values": [
      {"measurement": "effectiveness in reducing HER2 compared with radicicol", "setting": "[9]", "result": "at least as effective, if not better than radicicol"},
      {"measurement": "inhibition of small cell lung cancer cell line with defective Rb function", "setting": "[1]", "result": "potent inhibitors"},
      {"measurement": "potency compared with 17-AGG in small cell lung cancer cell line with defective Rb function", "setting": "[1]", "result": "much more potent than 17-AGG"},
      {"measurement": "inhibition of breast cancer cell with wild type Rb", "setting": "[8]", "result": "potent inhibitors"}
    ]},
    {"compound": "radicicol oxime [VII]", "values": [
      {"measurement": "efficacy in side by side experiment with radicicol (growth of MCF7 cells, FIG. 19)", "setting": "[5]", "result": "demonstrated efficacy"}
    ]}
  ]
}
